Assay results as given in patent US12723029B2, “Mitochondrial ATP inhibitors targeting the gamma subunit prevent metastasis” (LUNELLA BIOTECH, INC., priority 2020, dated 2026).

How the values were obtained:
chick embryos = test: CAM assay: embryo toxicity; parameters: species or system chicken (White Leghorn); details: all concentrations tested in vivo; daily for 8 days
Procedure: Next, to test in vivo activity, the well-established CAM assay was used with MDA-MB-231 cells, to measure the effect of Bedaquiline effects on tumor growth, spontaneous metastasis and embryo toxicity. FIG. 11A illustrates the timeline for the CAM assay. An inoculum of 1×10^6 MDA-MB-231 cells was added onto the CAM of each egg (day E9) and then eggs were randomized into groups. On day E10, tumors were detectable and they were then treated daily for 8 days with vehicle alone (1% DMSO in PBS) or Bedaquiline. After 8 days of drug administration, on day E18, all tumors were weighed, and the lower CAM was collected to evaluate the number of metastatic cells, as analyzed by qPCR with specific primers for Human Alu sequences. Before each drug administration, treatment tolerability was evaluated by scoring the number of live and dead chicken embryos.
Tumor Growth, Metastasis and Embryo Toxicity Assays: Xenograft assays were carried out by INOVOTION (Société: 811310127), La Tronche-France. […] For tumor growth assays, at least 14 tumor samples were collected and analysed per group (N≥14). […] Genomic DNA was extracted from the CAM (commercial kit) and analyzed by qPCR with specific primers for Human Alu sequences. […] Before each administration, the treatment tolerability was evaluated by scoring the number of live and dead embryos.

p21 = test: Western blot of p21 protein expression; assay type: cell-based, human; details: MDA-MB; 0.1, 1 and 10 μM; 120 hours
Procedure: (§1) Beta-actin was used as a control for equal loading.
(§2) Western Blotting: Cells were lysed in RIPA buffer (Sigma Aldrich, Inc.) containing one tablet of Complete TM inhibitor mix (Roche Applied Science, Indianapolis) and one tablet of PhosSTOP™ […] per 10 mL of buffer and loaded onto SDS-polyacrylamide gels. The gels were transferred to 0.2 μm nitrocellulose membranes, using the Trans-Blot Turbo Transfer System (Bio-Rad, Inc.) Membranes were incubated with the respective primary antibodies diluted in Tris-buffered saline, 0.1% Tween 20 (Sigma Aldrich, Inc.) and 5% Bovine Serum Albumin (BSA; Sigma Aldrich Inc.) (TBST), and incubated overnight at 4° C. Then, the blots were washed and incubated with appropriate secondary antibodies and detected using Super Signal West Pico Chemiluminescent Substrate (Thermo Scientific, Inc.), using the G-Box (Syngene, Inc). Antibodies and their dilutions used for Western blot analysis were as follows: mouse anti-ATP5F1C 1:500, mouse anti-β-actin 1:10,000, rabbit anti-PARP 1:1,000, rabbit anti-p21 1:1,000. The resulting immune-blot images were acquired using GeneSys Software (Syngene, Inc.).

MDA-MB-231 cells [1] = test: CAM assay: tumor growth and spontaneous metastasis of MDA-MB-231 xenografts; assay type: in vivo, chicken embryo (White Leghorn eggs)
PARP = test: Western blot of PARP protein expression; assay type: cell-based, human; details: MDA-MB; 0.1, 1 and 10 μM; 120 hours
Procedure: as §1, §2

[2] = test system: mitochondrial ATP production in MDA-MB-231 cells; test: ATP assay using BioTracker ATP-Red 1 (flow cytometry); assay type: cell-based, human
Procedure: FIG. 7 compares the fold-change of BioTracker ATP-Red (signal mean) between the control and MDA-MB-231 cells treated with Bedaquiline. […] The data in FIG. 7 based on two-way ANOVA, Sidak's multiple comparisons test, *p<0.05, ** p<0.005, ***p<0.0005, ****p<0.0001.
ATP assay using BioTracker ATP-Red 1: Cells were stained with BioTracker ATP-Red 1 after various treatments. After 30 minutes of incubation, the cells were washed twice with DPBS, collected and dissociated into a single-cell suspension with a 40 μm cell strainer. The cells were analyzed using the Attune N×T Flow Cytometer. Means of the signal (at 570 nm) were compared.

MDA-MB-231 cells [3] = test: Live cell/dead cell analysis by FACS; assay type: cell-based, human; details: 1 and 10 μM
Procedure: FIGS. 10D-10F show the results of live cell/dead cell analysis. MDA-MB-231 cells were treated with Bedaquiline (1 and 10 μM) or vehicle alone, for 48, 72 and 120 hours, and then subjected to live/dead analysis by FACS. […] However, at 72 and 120 hours (FIGS. 10E and 10F), a decrease in the live cell population and an increase in the dead cell population can be seen. […] Two-way ANOVA, Sidak's multiple comparisons test, ns=not significant, *p<0.01, **p<0.001, ***p<0.0005.

MDA-MB-231 cells [4] = test: Cell migration assay (Transwells); assay type: cell-based, human; details: 10 μM, 32 hours then 16 hours in Transwells
Procedure: MDA-MB-231 cells were cultured in presence of Bedaquiline (10 μM) for 32 hours and moved to the Transwells for 16 hours in presence of Bedaquiline (10 μM). Unpaired t-test, **p<0.005.
Cell Migration Assays: Briefly, 3.5×10^4 cells in 0.5 ml of serum-free DMEM with 0.1% BSA were added to the wells of 8-μm pore, non-coated membrane modified Boyden chambers (Transwells). The lower chambers contained 10% fetal bovine serum in DMEM to serve as a chemo-attractant. Cells were incubated at 37° C. and allowed to migrate throughout the course of 16 hours. Noninvasive cells were removed from the upper surface of the membrane by scrubbing with cotton swabs. Chambers were stained in 0.5% crystal violet diluted in 100% methanol for 30-60 min, rinsed in water and examined under a bright-field microscope. Values for invasion and migration were obtained by counting five fields per membrane (20× objective) and represent the average of three independent experiments.

MDA-MB-231 cells [5] = test: 3D anchorage independent growth (mammosphere formation) assay; assay type: cell-based, human
Procedure: 3D Anchorage Independent Growth Assay: This assay is also referred to as the mammosphere formation assay. A single-cell suspension was prepared using enzymatic, and manual disaggregation (25-g needle). Then, cells were plated at a density of 500 cells/cm^2 in mammosphere medium (DMEM-F12+1X B-27 Plus Supplement+20 ng/ml EGF+Pen/Strep) under non-adherent conditions, in culture dishes pre-coated with (2-hydroxyethylmethacrylate) (poly-HEMA, Sigma Aldrich Inc.), called “mammosphere plates.” Cells were grown for 5 days and maintained in a humidified incubator at 37° C. After 5 days of culture, 3D-mammospheres >50 μm were counted using an eye piece (“graticule”), and the percentage of cells plated which formed spheres was calculated and is referred to as percent mammosphere formation, and was normalized to one (1=100% MFE). 3D mammosphere formation efficiency (MFE) was analyzed in both the ATP-low and ATP-high sub-populations of cells. All 3D mammosphere experiments were performed in triplicate, at least 3 times independently.

MDA-MB-231 cells [6] = test: Cell cycle analysis by FACS; assay type: cell-based, human
Procedure: FIGS. 10A-10C show cell cycle populations for MDA-MB-231 cells treated with Bedaquiline (1 and 10 μM) or vehicle alone, after 48, 72 and 120 hours, respectively. Cell cycle analysis was performed using FACS. […] However, at 72 and 120 hours, a decrease in the S-phase population and a concomitant increase in the sub-G0-G1 population can be seen in FIGS. 10B and 10C. Two-way ANOVA, Sidak's multiple comparisons test, ns=not significant, *p<0.01, **p<0.001, ***p<0.0005.
Cell Cycle Analysis by FACS: Cell-cycle analysis was performed on the ATP-high and ATP-low cell sub-populations, by FACS analysis using the Attune N×T Flow Cytometer. Briefly, after trypsinization, the re-suspended cells were incubated with propidium iodide, as per the manufacturer's recommendations (Merck Millipore, Inc.). At least 25,000 events were analyzed per condition. Gated cells were categorized into cell-cycle stages.

MDA-MB-231 cells [7] = test: 2D monolayer growth, MDA-MB-231; assay type: cell-based, human; details: 10 μM, time-dependent
MCF10A cells = test: 2D monolayer growth, MCF10A; details: MCF10A normal control mammary epithelial cells; 10 μM
ATP5F1C = biological target: T1, ATP5F1C (Homo sapiens, UniProt P05496+P36542); test: Western blot of ATP5F1C protein expression in MDA-MB-231 2D monolayers; assay type: cell-based; details: 0.1, 1 and 10 μM, especially 10 μM, 24-120 hours, relative to DMSO
T1 construct: Western blot analysis of MDA-MB-231 2D cell monolayers treated with Bedaquiline; endogenous in cells; host or cells: MDA-MB-231 (ATCC)
Procedure: The binding of Bedaquiline to ATP5F1C in situ induces degradation of the protein. […] The effect was both time- and concentration-dependent.
as §2

With COc1nc2ccc(Br)cc2cc1[C@@H](c1ccccc1)[C@@](O)(CCN(C)C)c1cccc2ccccc12 [Bedaquiline, (1R,2S)-1-(6-bromo-2-methoxyquinolin-3-yl)-4-(dimethylamino)-2-naphthalen-1-yl-1-phenylbutan-2-ol] as the compound, how does the “toxicity for chick embryos (egg survival)” value (chick embryos) read?
Its value is “not toxic”.

What about the p21 protein expression (p21) of the same compound?
Its p21 protein expression is “decreased in a concentration-dependent manner”.

What about the “inhibition of spontaneous metastasis” value (MDA-MB-231 cells [1]; CAM, 120 μM treatment, daily for 8 days, qPCR Human Alu, vs control) of the same compound?
Its value is 84%.

And the “tumor growth (average tumor weight)” value (MDA-MB-231 cells [1]; CAM, treated daily for 8 days, day E18)?
Its value is “no statistically significant effect”.

What about the PARP protein expression (PARP) of the same compound?
Its PARP protein expression is “decreased in a concentration-dependent manner”.

What about the inhibition at 10 µM ([2]; Homo sapiens, MDA-MB-231, 10 μM, 120 hours of treatment, read-out: maximal inhibition of mitochondrial ATP production) of the same compound?
The inhibition at 10 µM was 75%.

And the “apoptotic cell population (early or late)” value (MDA-MB-231 cells [3]; 72 and 120 hours)?
The value was “no increase”.

What about the dead cell population (MDA-MB-231 cells [3]; 72 and 120 hours) of the same compound?
Its dead cell population is “increase”.

What about the live cell population (MDA-MB-231 cells [3]; 72 and 120 hours) of the same compound?
Its live cell population is “decrease”.

And the live/dead cell populations (MDA-MB-231 cells [3]; 48 hours)?
The live/dead cell populations was “No effects were detectable”.

And the “block of cell migration” value (MDA-MB-231 cells [4])?
The value was ~ 50%.

And the “block of 3D mammosphere formation” value (MDA-MB-231 cells [5]; MDA-MB-231, 10 μM)?
The value was ~ 65%.

What about the S-phase population (MDA-MB-231 cells [6]; 1 and 10 μM, 72 and 120 hours) of the same compound?
Its S-phase population is “decrease”.

What about the sub-G0-G1 population (MDA-MB-231 cells [6]; 1 and 10 μM, 72 and 120 hours) of the same compound?
Its sub-G0-G1 population is “increase”.

And the cell cycle populations (MDA-MB-231 cells [6]; 1 and 10 μM, 48 hours)?
Its cell cycle populations is “No effects were detectable”.

What about the “increase in the sub-G0-G1 population” value (MDA-MB-231 cells [6]; after 120 hours of treatment) of the same compound?
Its value is 2 fold.

What about the “reduction of cells in S-phase” value (MDA-MB-231 cells [6]; after 120 hours of treatment) of the same compound?
The value was 2 fold.

And the 2D monolayer growth (MDA-MB-231 cells [7])?
Its 2D monolayer growth is “effectively inhibits 2D growth”.

And the 2D monolayer growth (MCF10A cells)?
The 2D monolayer growth was “No effect”.

What about the “levels of ATP5F1C protein expression” value (ATP5F1C) of the same compound?
Its value is “reduced in a sustained way”.

Which “potency relative to unconjugated Bedaquiline, inhibiting spontaneous metastasis” value (MDA-MB-231 cells [1]; initial/early assessment, CAM assay) does the source give for CCCCCCCCCCCCCC(=O)OCCCCc1ccc2nc(OC)c([C@@H](c3ccccc3)[C@@](O)(CCN(C)C)c3cccc4ccccc34)cc2c1 [structure [4B]] here?
The value was 2-5 fold.

What about the “potency relative to unconjugated Bedaquiline, inducing ATP-depletion” value ([2]; initial/early assessment) of the same compound?
The value was 2-5 fold.

And the “potency relative to unconjugated Bedaquiline, inhibiting mammosphere formation” value (MDA-MB-231 cells [5]; initial/early assessment)?
The value was 2-5 fold.
